Test results from patent EP4559896A1, “PH-SENSITIVE CATIONIC LIPID AND LIPID NANOPARTICLE” (National University Corporation Hokkaido University, priority 2022, dated 2024).

Key:
factor VII (F7) = conditions: mouse liver; cited from earlier work
[1] = average particle size and polydispersity index by dynamic light scattering; assay type: physicochemical; conditions: Fluc mRNA-loaded lipid nanoparticles, TOT/DSPC/chol/PEG-DMG=65/15/20/1.5 (mol%)
Description: The average particle size (number average value), ζ-average particle size, and polydispersity index (PdI) of the lipid nanoparticles in PBS(-) (pH 7.4), and the zeta potential in 10 mM HEPES buffer (pH 7.4) were measured using an analyzer "Zetasizer Nano ZS ZEN3600" (manufactured by Malvern) utilizing dynamic light scattering.

[2] = encapsulation rate of lipid nanoparticles (RiboGreen); assay type: physicochemical; conditions: Fluc mRNA-loaded lipid nanoparticles, TOT/DSPC/chol/PEG-DMG=65/15/20/1.5 (mol%)
Description: The encapsulation rate of the lipid nanoparticles was determined by measuring the amount of encapsulated nucleic acid (mRNA) using RiboGreen (manufactured by Life Technologies), which is an RNAintercalator. The amount of mRNA was quantified based on a calibration curve prepared from a dilution series solution of mRNA at a known concentration.
Specifically, 10 mM HEPES buffer (pH 7.4), 10 w/v% Triton X-100, and RiboGreen were mixed at 978.8 µL, 20 µL, and 1.25 µL per 10 wells, respectively, to obtain a Triton(+) buffer. A Triton(-) buffer was obtained in replacing Triton X-100 with 10 mM HEPES buffer (pH 7.4). 100 µL/well of the sample was added to a black 96-well plate for fluorescence measurement, and 100 µL/well of Triton(+) buffer or Triton(-) buffer was added. After the plate was gently shaken on a shaking incubator (SI-300, manufactured by AS ONE) (700 rpm, 30 seconds), the fluorescence intensity of each well was measured using a microplate reader (VARIOSKAN LUX, manufactured by Thermo Fisher Scientific) (wavelength Ex/Em=500 nm/525 nm), and the nucleic acid encapsulation rate (%) was calculated.

BALB/c mice = assay: Fluc activity in tissues of mice administered with Fluc mRNA-loaded lipid nanoparticles; assay type: in vivo; conditions: for Fluc activity, predominant organ (liver or spleen): Example 34, TOT-5/DSPC/chol/PEG-DMG=65/X/35-X/1.5 (mol%), i.v. 0.01 mg/kg Fluc mRNA, 6 hours
Description: Lipid nanoparticles were administered to mice by intravenous injection into the tail vein using a 27G needle. Unless otherwise specified, BALB/c mice (4 to 5 weeks old, female) were used.
First, BALB/c mice (female, 4 weeks old) were intravenously injected with lipid nanoparticles encapsulating Fluc mRNA (Fluc mRNA-loaded lipid nanoparticles) at a dose of 0.01 mg mRNA/kg. Six hours after intravenous injection, the mice were euthanized, each tissue was collected, frozen in liquid nitrogen, and stored at -80°C. The tissues were homogenized in passive lysis buffer (manufactured by Promega) using a bead-type cell disruptor (Micro Smash MS-100R, manufactured by TOMY Seiko). Tissue debris was removed by centrifugation, and the supernatant was collected. Fluc activity in the supernatant was measured using the Luciferase Assay System (E1500, manufactured by Promega) according to the manufacturer's protocol. Luminescence was measured using a luminometer (Luminescencer-PSN, manufactured by ATTO). Protein concentration was determined using a commercially available assay kit (BCA Protein Assay Kit, manufactured by Pierce). Fluc activity was expressed as relative light units (RLU) per mg of protein.
Specifically, first, each lipid nanoparticle was intravenously administered into the tail vein of mice in an amount of 0.2 mg/kg of Fluc mRNA, and 6 hours after administration of the lipid nanoparticles, about 50 mg each of the liver, spleen, lung, heart, brain, and muscle was collected and stored frozen. 500 µL of passive lysis buffer (manufactured by Promega) was added to each tube containing the collected organ. The liver was homogenized at 4000 rpm for 20 seconds twice, the spleen, kidney, lung, and heart were homogenized at 5000 rpm for 20 seconds twice, and the muscle was homogenized at 5000 rpm for 20 seconds four times; then, the homogenate was centrifuged at 13000 rpm at 4°C for 10 minutes, and the supernatant was collected as a sample for measurement. The liver and spleen were diluted 100 times with passive lysis buffer. 50 µL of a measurement sample (tissue supernatant) was mixed with 50 µL of luciferase assay buffer of the Luciferase Assay System (E1500, manufactured by Promega) previously added in a test tube by pipetting, and the amount of luminescence was measured with a luminometer. Protein concentration was determined using a commercially available assay kit (BCA Protein Assay Kit, manufactured by Pierce). Fluc activity was expressed as relative light units (RLU) per mg of protein.

[3] = system: B cells, T cells, NK cells, dendritic cells, and neutrophils; assay: uptake of DiD-modified lipid nanoparticles by spleen cell types (DiD fluorescence intensity); assay type: in vivo, mice; conditions: Example 37, TOT-5/DSPC/chol/PEG-DMG=65/X/35-X/1.5 (mol%), 1 hour
Description: First, DiD-modified Fluc mRNA-loaded lipid nanoparticles having a composition of TOT-5/DSPC/chol/PEG-DMG=65/X/35-X/1.5 (mol%) (X=3, 5, 10, 15, or 20) were prepared in the same manner as in Example 34, except that the red fluorescent substance DiD was incorporated at 0.5 mol% for DiD modification. The obtained DiD-modified Fluc mRNA-loaded lipid nanoparticles were intravenously administered into the tail vein of BALB/c mice so that the dose of Fluc mRNA was 0.2 mg/kg, the mice were euthanized 1 hour after administration, and the spleen was collected (N=3). As a control, the spleen was also collected from BALB/c mice not administered with lipid nanoparticles.
The spleen cells were stained to distinguish B cells, T cells, NK cells, dendritic cells, and neutrophils. […] After removing the supernatant, the cells were resuspended with 5 mL of cold HBSS(-) buffer, the number of cells was counted, the suspensions were added to a 1.5 mL tube so that 3×10^6 cells were added, and centrifuged at 4°C and 400×g for 5 minutes. […] 6 µL of propidium iodide solution was added to the sample, each cell group was extracted by each surface antigen, and then DiD fluorescence intensity was measured.
DiD-positive cells (cells emitting DiD fluorescence) are cells that have taken up DiD-modified Fluc mRNA-loaded lipid nanoparticles. […]

[4] = Example 11, TOT-5/DOPE/chol/PEG-DMG=60/15/25/1, i.v. tail vein
[5] = Example 14, TOT-5/DSPC/chol/PEG-DMG=65/15/20/1, i.v. tail vein

Structure (SMILES)	ED50 in factor VII (F7) knockdown (factor VII (F7))	PdI [1]	ζ-Average Particle Size [1]	Encapsulation Rate [2]	Fluc activity (RLU/mg protein) in the liver and spleen (BALB/c mice; Example 11, TOT-5/DOPE/chol/PEG-DMG=50 to 65/10 to 35/0 to 40/1 (mol%), all compositions, i.v. tail vein)	Fluc activity (RLU/mg protein) in the liver (BALB/c mice; [4])	Fluc activity (RLU/mg protein) in the spleen (BALB/c mice; [4])	Fluc activity (RLU/mg protein) in the liver and spleen (BALB/c mice; Example 13, TOT/DOPE/chol/PEG-DMG=60/15/25/1.0 (mol%), i.v. tail vein)	Fluc activity (RLU/mg protein) in the liver and spleen (BALB/c mice; Example 14, TOT-5/DSPC/chol/PEG-DMG=55 to 70/5 to 30/10 to 35/1 (mol%), all compositions, i.v. tail vein)	Fluc activity (RLU/mg protein) in the liver (BALB/c mice; Example 14, TOT-5/DSPC/chol/PEG-DMG=65/5/30/1, i.v. tail vein)	Fluc activity (RLU/mg protein) in the liver (BALB/c mice; [5])	Fluc activity (RLU/mg protein) in the spleen (BALB/c mice; [5])	luciferase activity in the spleen compared with control mice (CL4F6-containing lipid nanoparticles) (BALB/c mice; Example 33, TOT/DSPC/chol/PEG-DMG=65/15/20/1.5, control CL4F6/DSPC/chol/PEG-DMG=50/10/40/1.5 (mol%), i.v. tail vein)	Fluc activity, predominant organ (liver or spleen) (BALB/c mice; DSPC content 10 mol% or more)	Fluc activity, predominant organ (liver or spleen) (BALB/c mice; DSPC content less than 10 mol%)	uptake by spleen cell types (DiD fluorescence intensity) ([3]; X=3, 5, 10, 15, or 20, i.v. 0.2 mg/kg Fluc mRNA)	improvement of the uptake by B cells by increasing the DSPC content ([3]; X=3 to 20, i.v. 0.2 mg/kg Fluc mRNA)
CCCCC/C=C\C/C=C\CCCCCCCCC(CCCCCCCC/C=C\C/C=C\CCCCC)OC(=O)CCCN(C)C [DLin-MC3-DMA]	0.005 mg siRNA/kg	–	–	–	–	–	–	–	–	–	–	–	–	–	–	–	–
CCCCCCCC/C=C\CCCCCCCC(=O)OCC(COC(=O)CCCCCCC/C=C\CCCCCCCC)(COC(=O)CCCCCCC/C=C\CCCCCCCC)NC(=O)CCN1CCCCC1 [TOT-5, 2-((oleoyloxy)methyl)-2-(3-(piperidin-1-yl)propanamido)propane-1,3-diyl dioleate]	–	0.161	102.1 nm	88.6%	confirmed	high	not so high	very high	confirmed	very high	not so high	high	higher	predominantly in the spleen	predominantly in the liver	highly taken up by B cells and dendritic cells	about 10 times
CCCCC/C=C\C/C=C\CCCCCCCCOC1(OCCCCCCCC/C=C\C/C=C\CCCCC)CCN(C)CC1 [YSK05]	0.06 mg siRNA/kg	–	–	–	–	–	–	–	–	–	–	–	–	–	–	–	–
